Assay results taken from US10413556B1, “Production of insulin by testosterone olfaction” (priority 2019, dated 2019).
Several values for one entry are separate records, joined by “and”; a condition that tells them apart may be missing. Identical values can stand only once.

How the values were obtained:
[1] = system: progesterone production; assay: Progesterone olfaction in postmenopausal women; format: in vivo; conditions: 10 postmenopausal women; unpublished studies
Description: (§1) These studies raised the question: is this action by olfaction unique to testosterone or can the effect be observed with other hormones? To answer this question, Applicant studied progesterone olfaction in 10 postmenopausal women. Progesterone is the primary female sex hormone and testosterone is the primary male sex hormone. […] This is a ground-breaking discovery: smelling the hormones that have been tested caused the body to produce the hormone that is smelled. However, it is still unknown whether hormone olfaction will work with hormones other than sex hormones.

[2] = system: free testosterone production; assay: Testosterone production after olfaction of testosterone or truffle extract; format: in vivo; conditions: olfaction of pure testosterone; unpublished research
Description: Olfaction, the sense of smell, is critical for the survival of almost all creatures. Humans are able to distinguish over 10,000 different odor molecules. With every inhalation, currents of air swirl through the nostrils over the bony turbinates in the nose that contain receptors in the olfactory epithelium. Olfactory mucosa protects the olfactory epithelium and allows odors to dissolve for detection by olfactory receptors. The cilia projecting from the olfactory knob contain receptors for odorants. The cilia project from the knob directly into the […]. The interaction of the right molecule with the right receptor causes a structural transformation of the receptor, which gives rise to an electrical signal to the olfactory bulb and thence to the areas in the limbic brain that perceive it as the original smell.
as §1

[3] = system: blood sugar level; assay: Blood sugar level in men before and after testosterone olfaction; format: in vivo
Experimental: To evaluate the possible role of testosterone in blood sugar reduction in diabetes type 2, the following protocol was designed.
Ten men between the ages of 30 to 90 volunteered to participate in this study as subjects. Approximately one and a half hours after having a meal the subject came to Applicant's office. Prior to the testosterone olfaction the blood sugar level was measured.
The subject produced an adequately sized drop of blood from a finger using a lancing device. The blood sugar was measured with a Contour Blood Glucose Monitoring System, Model 9546 C, Serial Number FB00450. The drop of blood was picked up by a Contour blood glucose test strip 7097C specific for the instrument and within the usable date range. This value was recorded as mg/dL.
A drop of pure testosterone diluted 1:1000 in ethanol was sprayed onto the palm of the hand and smelled by the subject. […] This concentration more efficient than the undiluted hormone.
A second blood drop was immediately taken and measured and recorded in the same manner as described above.

[4] = system: insulin resistance; conditions: type 2 diabetic men with low testosterone, weekly injections for 24 weeks; cited from earlier work

| SMILES | progesterone production after olfaction [1] | testosterone production after olfaction [2] | percent reduction of sugar level, average for all ten ([3]; average of ten subjects, after testosterone olfaction) [%] | PERCENT CHANGE of blood sugar ([3]; individual subject, before vs after olfaction of testosterone 1:1000 in ethanol) | blood sugar AFTER OLFACTION ([3]; individual subject, measured immediately after smelling testosterone diluted 1:1000 in ethanol, about 1.5 h after a meal, finger blood) | effect of other concentrations compared with 1:1000 dilution ([3]; prior studies, other concentrations of testosterone) | effect on blood sugar level ([3]; testosterone olfaction used alone, ten men) | time in which olfaction lowers blood sugar ([3]; time to lance the finger, collect the blood and test) | ability to utilize insulin [4] |
| --- | --- | --- | --- | --- | --- | --- | --- | --- | --- |
| CC(=O)[C@H]1CC[C@H]2[C@@H]3CCC4=CC(=O)CC[C@]4(C)[C@H]3CC[C@]12C [progesterone] | does initiate production of progesterone |  |  |  |  |  |  |  |  |
| C[C@]12CC[C@H]3[C@@H](CCC4=CC(=O)CC[C@@]43C)[C@@H]1CC[C@@H]2O [testosterone] |  | does initiate testosterone production | 36 | 56% and 30% (2×) and 38% and 19% and 17% and 34% and 70% and 53% and 12% | 86 mg/dL (2×) and 99 mg/dL (2×) and 109 mg/dL and 107 mg/dL and 130 mg/dL and 158 mg/dL and 98 mg/dL and 92 mg/dL | essentially the same effect | lowers the blood sugar level | about 30 seconds | improved |
